Results on three compounds are retold here after paper PMC9065260 (Frontiers in Pharmacology, 2022).

As a reminder, the IC50 is the concentration at which inhibition is half-maximal. For orientation: melting point means the temperature of the solid-liquid transition.

Series [1] deals with H1650 cells. As to the kind of experiment: MTT assay for cell proliferation and cytotoxicity. It is filed as cell-based. The settings on record: Homo sapiens, read-out: IC50 H1650.
Procedure: (§3) The compounds were dissolved in DMSO to make a 50 mM stock solution and were diluted to the concentration of working solutions with the complete growth medium before administration.
(§4) Cells were seeded in 96-well plates with densities of 2,200–2,500 cells/well in 100 μL. One day after seeding, the concentration of the test compounds between 0 and 50 μM, 0.1% DMSO was added to cells as control. […] After 48 h, MTT was added and incubated in the plate for 1–4 h in the incubator.
Series [2] deals with HCC827 cells. The series can be described thus: MTT assay for cell proliferation and cytotoxicity. It is filed as cell-based. The settings on record: Homo sapiens, 48 h, mean ± SD.
Procedure: as §3, §4
Series [3] has as its system KYSE70 cells. The series can be described thus: MTT assay for cell proliferation and cytotoxicity. The conditions noted are these: Homo sapiens, read-out: IC50 KYSE70. The series is classed as cell-based. A general note: Tetrazolium dyes change colour on reduction, which living cells bring about.
Procedure: as §3, §4
Series [4] has as its system KYSE410 cells. The series can be described thus: MTT assay for cell proliferation and cytotoxicity. It is filed as cell-based. The settings on record: Homo sapiens, read-out: IC50 KYSE410.
Procedure: as §3, §4
The test system of series [5] is human esophageal epithelial cell SHEE. The series can be described thus: MTT assay, toxicity against normal cells. It is filed as cell-based. The settings on record: read-out: IC50 SHEE.
Procedure: Cells were seeded in 96-well plates with densities of 2,200–2,500 cells/well in 100 μL. One day after seeding, the concentration of the test compounds between 0 and 50 μM, 0.1% DMSO was added to cells as control. Approximately 2200-2500 transfected cells in 100 μL were incubated in quintuplicate in 96-well plates. After 48 h, MTT was added and incubated in the plate for 1–4 h in the incubator.
In series [6] the test system is KYSE450 cells. The series can be described thus: MTT assay for cell proliferation and cytotoxicity. The series is classed as cell-based. The conditions noted are these: Homo sapiens, read-out: IC50 KYSE450.
Procedure: as §3, §4
Series [7] has as its system KYSE450TR cells. The series can be described thus: MTT assay, drug-resistant cell line. It is filed as cell-based, human.
Procedure: as §3, §4
Series [8] concerns KYSE450 cells. The series can be described thus: Flow cytometry detection for cell apoptosis (Annexin V/PI). The series is classed as cell-based, human. The conditions noted are these: 48 h. On the procedure:
(§1) Cell apoptosis analysis was carried out by flow cytometry using the Annexin V/PI apoptosis methods. […] The cells were harvested and incubated with 250 μL of 1 × Annexin V binding buffer containing 5 μL of PI and 5 μL of FITC Annexin V (final concentration 1.8 μg/ml, Biolegend cat: 640945) for 15 min at room temperature in the dark. Then 200 µL of 1 × binding buffer was added for flow cytometry analysis (BD FACSCalibur™ Flow Cytometer).

In series [9] the test system is KYSE450TR cells. The series is described as above. It is filed as cell-based, human. The conditions noted are these: 48 h. On the procedure: as §1
Series [10] has as its system KYSE70TR cells. The series can be described thus: MTT assay, drug-resistant cell line. It is filed as cell-based, human.
Procedure: as §3, §4
Series [11] concerns H1650TR cells. As to the kind of experiment: MTT assay, drug-resistant cell line. The series is classed as cell-based, human.
Procedure: as §3, §4
The test system of series [12] is KYSE410TR cells. As to the kind of experiment: MTT assay, drug-resistant cell line. The series is classed as cell-based, human.
Procedure: as §3, §4
For series [13], the system named is HCC827GR cells. As to the kind of experiment: MTT assay, drug-resistant cell line. It is filed as cell-based, human.
Procedure: as §3, §4
Series [14] deals with KYSE 70TR. The series can be described thus: Resistance index determination of drug resistance cell lines. The conditions noted are these: for IC50: Homo sapiens, KYSE 70TR. It is filed as cell-based, human. On the procedure: (§2) […]. Three types of esophageal cancer cell lines KYSE70TR, KYSE410TR, and KYSE450TR which were resistant to paclitaxel, and NSCLC cell lines HCC827GR and H1650TR, which were resistant to gefitinib and paclitaxel, respectively, were also tested for the comparison purpose.

Series [15] deals with KYSE 410TR. The description is as above. It is filed as cell-based, human. The conditions noted are these: for IC50: Homo sapiens, KYSE 410TR. On the procedure: as §2
The subject of series [16] is KYSE 450TR. The series is described as above. It is filed as cell-based, human. The conditions noted are these: for IC50: Homo sapiens, KYSE 450TR. The procedure: as §2
Series [17] relates to H1650TR. Described as above. The series is classed as cell-based, human. The conditions noted are these: for IC50: Homo sapiens, H1650TR. The procedure: as §2
The test system of series [18] is KYSE 410. Described as above. It is filed as cell-based. The conditions noted are these: Homo sapiens. The procedure: as §2
For series [19], the system named is KYSE 450. The description is as above. It is filed as cell-based. The settings on record: Homo sapiens. On the procedure: as §2
Series [20] has as its system H1650. The description is as above. The settings on record: Homo sapiens. The series is classed as cell-based. The procedure: as §2
Series [21] relates to KYSE 70. Described as above. The series is classed as cell-based. The settings on record: Homo sapiens. The procedure: as §2

Read-outs that look alike come from different tables or passages of the source.

Turning to `COCCOc1cc2ncnc(Nc3cccc(-c4cn(CCc5ccccc5)nn4)c3)c2cc1OCCOC` [Compound 3s, [6,7-Bis-(2-Methoxy-Ethoxy)-Quinazolin-4-yl]-{3-[1-Phenethyl-1H-(1,2,3)Triazol-4-yl]-Phenyl}-Amine], the melting point was in the range of 109 to 112 °C. In addition, in series [1] (NCI-H1650, MTT, 48 h, mean ± SD), the IC50 was greater than 50 µM. In series [2], this compound yielded an IC50 greater than 50 µM. In addition, the IC50 in [3] (KYSE-70, MTT, 48 h, mean ± SD) is greater than 50 µM. For the same compound, the IC50 in series [4] (KYSE-410, MTT, 48 h, mean ± SD) is greater than 50 µM. Moreover, the IC50 in series [5] (MTT, normal human esophageal epithelial cells, mean ± SD) came to 33.3 ± 3.43 µM. Besides, the 50% inhibitory concentration (IC50) in series [6] (KYSE-450, MTT, 48 h, mean ± SD) is greater than 50 µM.

Turning to `C#Cc1cccc(Nc2ncnc3cc(OCCOC)c(OCCOC)cc23)c1` [Erlotinib], the IC50 is greater than 10 µM in series [7] (Homo sapiens, read-out: IC50 KYSE450TR, MTT, paclitaxel-resistant esophageal cancer cell line); greater than 20 µM in series [7] (read-out: IC50 KYSE450TR, MTT, paclitaxel-resistant esophageal cancer cell line); 14 ± 1.19 µM in series [1] (NCI-H1650, 48 h); greater than 10 µM in [10] (Homo sapiens, read-out: IC50 KYSE70TR, MTT, paclitaxel-resistant esophageal cancer cell line); greater than 20 µM in [10] (read-out: IC50 KYSE70TR, MTT, paclitaxel-resistant esophageal cancer cell line); greater than 10 µM in series [11] (Homo sapiens, read-out: IC50 H1650TR, MTT, paclitaxel-resistant lung cancer cell line). Also, the IC50 was greater than 20 µM in series [11] (read-out: IC50 H1650TR, MTT, paclitaxel-resistant lung cancer cell line); greater than 10 µM in series [12] (Homo sapiens, read-out: IC50 KYSE410TR, MTT, paclitaxel-resistant esophageal cancer cell line); greater than 20 µM in series [12] (read-out: IC50 KYSE410TR, MTT, paclitaxel-resistant esophageal cancer cell line); greater than 50 µM in series [3] (KYSE-70, 48 h); 5 ± 0.46 µM in [4] (KYSE-410, 48 h); 21 ± 2.11 µM in [5] (Homo sapiens). For the same compound, the IC50 is 7.6 ± 0.51 µM in [6] (KYSE-450, 48 h); greater than 10 µM in [13] (Homo sapiens, read-out: IC50 HCC827GR, MTT, gefitinib-resistant lung cancer cell line); greater than 20 µM in series [13] (read-out: IC50 HCC827GR, MTT, gefitinib-resistant lung cancer cell line). For the same compound, the “proportion of apoptotic cells” value was 7.04% in series [8] (KYSE450, 5 μM); 8.94% in [8] (KYSE450, 10 μM); 10.16% in [9] (5 μM); 16.68% in [9] (10 μM).

For `CC(=O)O[C@H]1C(=O)[C@@]2(C)[C@H]([C@H](OC(=O)c3ccccc3)[C@]3(O)C[C@H](OC(=O)[C@H](O)[C@@H](NC(=O)c4ccccc4)c4ccccc4)C(C)=C1C3(C)C)[C@]1(OC(C)=O)CO[C@@H]1C[C@@H]2O` [paclitaxel], the IC50 in [14] (24 h, read-out: 24 h IC50) came out at 4.92 ± 0.274 µM; in series [14] (48 h, read-out: 48 h IC50) it was 1.12 ± 0.0352 µM; in [15] (24 h, read-out: 24 h IC50) it was 6.4 ± 0.43 µM; in series [15] (48 h, read-out: 48 h IC50), 1.71 ± 0.0864 µM; in series [16] (24 h, read-out: 24 h IC50), 0.266 ± 0.0661 µM; in series [16] (48 h, read-out: 48 h IC50) it was 0.12 ± 0.0321 µM. Also, the IC50 amounted to 4.13 ± 0.208 µM in series [17] (24 h, read-out: 24 h IC50); 0.645 ± 0.045 µM in [17] (48 h, read-out: 48 h IC50); 1.28 ± 0.0693 µM in series [18] (KYSE 410, 24 h, read-out: 24 h IC50); 0.052 ± 0.00345 µM in series [18] (KYSE 410, 48 h, read-out: 48 h IC50); 0.05503 ± 0.00033 µM in [19] (KYSE 450, 24 h, read-out: 24 h IC50); 0.00782 ± 0.00084 µM in series [19] (KYSE 450, 48 h, read-out: 48 h IC50). Further, the IC50 in [20] (NCI-H1650, 24 h, read-out: 24 h IC50) was 0.87 ± 0.0435 µM; in series [20] (NCI-H1650, 48 h, read-out: 48 h IC50), 0.0833 ± 0.00333 µM; in series [21] (KYSE 70, 24 h, read-out: 24 h IC50) it was 0.64 ± 0.043 µM; in [21] (KYSE 70, 48 h, read-out: 48 h IC50), 0.0202 µM. In addition, the Resistance index in series [14] (KYSE 70TR vs KYSE 70, 24 h IC50) was 7.69; in series [14] (KYSE 70TR vs KYSE 70, 48 h IC50), 56; in series [15] (KYSE 410TR vs KYSE 410, 24 h IC50), 5; in series [15] (KYSE 410TR vs KYSE 410, 48 h IC50), 32.88; in [16] (KYSE 450TR vs KYSE 450, 24 h IC50), 4.84; in series [16] (KYSE 450TR vs KYSE 450, 48 h IC50), 15.38. In addition, the Resistance index in [17] (H1650TR vs H1650, 24 h IC50) worked out at 4.74; in series [17] (H1650TR vs H1650, 48 h IC50), 7.74.
